According to patent publication US20170332910A1, “MODIFIED PARAMAGNETIC NANOPARTICLES FOR TARGETED DELIVERY OF THERAPEUTICS AND METHODS THEREOF” (ALBERT EINSTEIN COLLEGE OF MEDICINE, INC., priority 2014, published 2017):

Experiments:
[1] = tested on: xenografted human breast cancer; experiment: ADM-PMNP plus magnetic field on xenografted human breast cancer (bioluminescence); format: in vivo, mouse; conditions: comparable amount of free drug
Experimental: FIG. 8 Anti-tumor effect of IV infused Adriamycin loaded PMNP (ADM-PMNP) plus magnetic field treatment on xenografted human breast cancer. Human breast cancer was s.c. xenografted in a female nude mouse. The mouse was injected with 1 mg/kg ADM-PMNP and the tumor was treated with magnetic field for 30 minutes following each injection The mouse was imaged before and after the treatment, the luminescent signals were quantitatively analyzed for change of tumor size. At the end of the treatment, there was a >80% decrease of luminescent signaling in the tumor. The signal recovered partially 3 days after the treatment was ended.
Signal intensity in treated tumor was similar to that in bladder, a major route of PMNP elimination. Next, to assess drug delivery and anti-tumor efficacy, MoB-1833 mammary xenografted tumor-bearing mice were infused with ADM-coated PMNP (ADM-PMNP). ADM use in chemotherapy is limited due to systemic toxicity and it is therefore an excellent model drug for evaluation of the potentially utility of our PMNP platform. […] This ADM dose is 5-20 times lower than doses of free ADM commonly used for in animal studies and similar to doses used clinically. The 4-day treatment achieved a 9-fold reduction in tumor mass (FIG. 8). Tumor rebound upon drug termination confirmed specificity of the drug effect. […] The necrosis was confirmed histologically (FIG. 9Bd-f). […]

[2] = Histopathological analysis of multiple tissues (toxicity); format: in vivo, mouse; conditions: 1 mg/kg
Experimental: FIGS. 11(A-B). Systemic effect of the treatment. (A) Representative H&E staining of tissue sections from ADM-PMNP injected mice (1 mg/kg BW)(A). (B) inflammation and hyperplasia were found in colon from mice treated with free ADM (B-left) but not in mice injected with the same dose of ADM-PMNP (B-right).

MDA-MB-436 = experiment: Tumor necrosis in MDA-MB-436 xenografts; format: in vivo, mouse; conditions: 1.0 mg/kg
[3] = tested on: U87 human glioblastoma cells; experiment: Cell viability assay (Presto Blue); format: cell-based; conditions: 48 h incubation
Experimental: FIG. 22 Cytotoxicity of naked curcumin, curcumin conjugated PMNPs and Sol-Gel Nps and blanks (without curcumin) performed on U87 human glioblastoma cells after 48 hours of incubation. Note that 1 μM equivalent curcumin concentration corresponds to 16.7 μg/mL of nanoparticles. […] The data represents the mean±SE, n=3 to 18.
Cells were plated in 24-well trays and allowed to become confluent then incubated with naked curcumin or different curcumin NP concentrations for 48 h. Cell viability was quantified using Presto Blue (Invitrogen) an assay that contains a cell permeable resazurin-based solution that is modified by the reducing environment of the viable cell becoming highly fluorescent. Using a plate reader, cell viability was quantified after 0.5-1 hours of incubation with Presto Blue. All measurements were always accompanied by control wells and by calibration wells to account for background fluorescence using the same culture media and the same NP concentrations without the cells.
U-87 used as an vitro model of human glioblastoma were incubated with either Curcumin or Curcumin loaded NPs.

[4] = tested on: TNFα, TGBβ, MCP-1, IL-1α, IL-1β, IL-6, IL-10, and IL-12; experiment: Time-dependent cytokine levels (systemic inflammation); format: in vivo, mice
Experimental: This study monitored the time-dependent changes in various cytokine levels (TNFα, TGBβ, MCP-1, IL-1α, IL-1β, IL-6, IL-10, and IL-12) for LPS-PMNPs (10 mg/kg) in mice with and without magnetic field (i.e., treatment with or without a localized magnet) as compared with free LPS introduced at 10 mg/kg and 2 mg/kg—a lower concentration than for the LPS carried on the PMNPs. The cytokine levels for each group were measured over a 24-hour period, with measurements at baseline, 1 hour, 6 hours, and 24 hours. The four comparison groups were: A) LPS-PMNP (10 mg/kg) without magnetic field; B) LPS-PMNP (10 mg/kg) with magnetic field; C) free LPS (2 mg/kg); and D) free LPS (10 mg/kg).

[5] = tested on: human glioblastoma (GBM43); experiment: Effect of LPS-PMNPs on delivery of irinotecan, intracranial glioblastoma; format: in vivo, mouse; conditions: LPS-PMNP plus magnetic field vs groups 1 and 2, 24 hours after dose on day 18
Experimental: In this study, human glioblastoma (GBM43) were maintained as subcutaneous xenografts. The tumor cells from subcutaneous xenografts were transfer to the intracranial compartment. Cells were suspended in DMEM media at 1×10^5 cells/μL for intracranial injection. 3 μL of tumor cell suspension (3×10^5 cells total) were injected into the right caudate putamen of 6 week-old female athymic mice (nu/nu). Prior to injection, the mice were anesthetized IP (intraperitoneal injection) (ketamine/xylazine). 0.4 mg of irinotecan was administrated via tail vein to each mouse on day 12 after implantation of tumor cells, and repeated at days 18, 24, and 30. LPS-PMNPs were administered via tail vein 4 hours prior to administration of irinotecan. All treatment groups received treatment with irinotecan. The treatment groups were: 1) control (without LPS-PMNP treatment); 2) LPS-PMNP (LPS-PMNP treatment without magnetic field); and 3) LPS-PMNP with magnetic field (strong localized magnetic field applied to tumor area). For group 3, the strong localized magnetic field was applied to the tumor cranial area using a conical magnet. […]
The irinotecan content in the brain and the tumor from a mouse in each group was also determined. […] Irinotecan levels in the tumor tissues were measured from homogenized tissues in acidic methanol solution, and measured using an HPLC (eluted peaks, 380/540 nm). […]

[6] = tested on: human glioblastoma (GBM43); experiment: LPS-PMNPs and oral temozolomide, survival and drug delivery; format: in vivo, mouse; conditions: oral 20 mg/kg after LPS-PMNP with magnetic field; relative to groups 1-3
Experimental: In this study, human glioblastoma (GBM43) were again maintained as subcutaneous xenografts. The tumor cells from subcutaneous xenografts were transfer to the intracranial compartment. Cells were suspended in DMEM media at 1×10^5 cells/μL for intracranial injection. 3 μL of tumor cell suspension (3×10^5 cells total) were injected into the right caudate putamen of 6 week-old female athymic mice (nu/nu). Prior to injection, the mice were anesthetized IP (intraperitoneal injection) (ketamine/xylazine). PMNPs (10 mg/kg) with and without LPS were administered via tail vein. 6 hours after administration of PMNPs, 20 mg/kg temozolomide (TMZ) was administrated as oral suspension in a vehicle containing 2.5 mg/ml Povidone K30, 0.015% citric acid, 50% Ora-Plus, 50% Ora-Sweet SF (Paddock Labs Minneapolis, Minn.) on days 12, 18, 24, and 30. The treatment groups were: 1) control (no TMZ); 2) TMZ alone; 3) LPS-PMNP plus TMZ (without magnetic field); and 4) LPS-PMNP plus TMZ with magnetic field (strong localized magnetic field applied to tumor area). The mice were euthanized as the symptoms from the increasing tumor burden prevented access to food/water.

[7] = tested on: human breast cancer xenographs; experiment: MRI of magnetic field induced localization of gadolinium oxide based PMNPs; format: in vivo, mouse
Experimental: FIGS. 3(A-D). […] By applying a magnet field for 30 minutes at hind end (blue arrows), the enhanced image of hind-end tumor is observed (3B). The enhanced image of the tumor persists for at least several hours. […] The PMNPs are concentrated at site of a lower abdominal mammary tumor (FIG. 3C) using an external magnetic field placed over the tumor for 30 minutes. […] Imaging was performed over several hours without taking the mouse out of MRI machine thereby maintaining all of the imaging parameters.
FIGS. 4(A-B). Compares the MRI contrast data between […] (gadopentetate dimeglumine) and gadolinium oxide-based PMNPs.
In FIG. 3 are presented results on magnetic immobilization of gadolinium-based PMNPs in a mouse with numerous human breast cancer xenographs. There is no image enhancement for any of the multiple tumors located in different parts of the mouse including one at hind end (green-arrow at bottom of the picture marked tumor). The mouse was then removed and then subjected to thirty minutes of having a magnetic field placed over the tumor demarked by the green arrow. […] The intensity of MRI signal is very similar at both tumor and bladder. This is very different than observed in case of […] where there is a transient image of the bladder and no site specific localization of the contrast agent in any one of the tumors. […]

COc1cccc2c1C(=O)c1c(O)c3c(c(O)c1C2=O)C[C@@](O)(C(=O)CO)C[C@@H]3O[C@H]1C[C@H](N)[C@H](O)[C@H](C)O1 [Adriamycin, Adriamycin (doxorubicin)]
anti-tumor effect [1]: relatively ineffective
histopathological findings [2]: colonic inflammation and hyperplasia
tumor necrosis (MDA-MB-436): smaller necrotic lesions

COc1cc(/C=C/C(=O)CC(=O)/C=C/c2ccc(O)c(OC)c2)ccc1O [curcumin, Curcumin]
equivalent curcumin concentration able to significantly decrease cell viability by 20% [3]: 5 µM

lipopolysaccharides [free LPS]
acute inflammation ([4]; 2 mg/kg, compared with LPS-PMNP (10 mg/kg)): substantially greater
inflammation over time ([4]; 10 mg/kg): produced endotoxemia

CCc1c2c(nc3ccc(OC(=O)N4CCC(N5CCCCC5)CC4)cc13)-c1cc3c(c(=O)n1C2)COC(=O)[C@]3(O)CC [irinotecan]
irinotecan content in the brain [5]: higher
irinotecan content in the tumor ([5]; HPLC): significantly higher

Cn1nnc2c(C(N)=O)ncn2c1=O [TMZ, temozolomide]
TMZ content in the tumor [6]: greater TMZ content in the tumor

CNC[C@H](O)[C@@H](O)[C@H](O)[C@H](O)CO.CNC[C@H](O)[C@@H](O)[C@H](O)[C@H](O)CO.O=C([O-])CN(CCN(CC(=O)[O-])CC(=O)O)CCN(CC(=O)[O-])CC(=O)O.[Gd+3] [gadopentetate dimeglumine]
persistence of MRI contrast ([7]; mouse, in vivo): short lived
distribution of contrast agent (MRI) ([7]; within a short time, no magnetic field): concentrates in the bladder
